The source of these data is ChEMBL document CHEMBL5244267, “A brief overview on recent advances in spiro[chromane-2,4'-piperidine]-4(3H)-one-functionalized compounds in medicinal chemistry research” (Bioorg Med Chem, 2020).

Converted amounts (≈) assume the structure as drawn.

Series [1] is described as follows: Antioxidant activity assessed as DPPH free radical scavenging activity at 500 microg/ml. It counts as functional.
Another series has as its system A2780. The series is described as follows: Anticancer activity against human A2780 cells assessed as inhibition of cell proliferation measured after 48 hrs by MTT assay. It counts as functional, cell-based. The following applies: A2780, 48 h.
The next series has as its system MCF7. As to the kind of experiment: Anticancer activity against human MCF7 cells assessed as inhibition of cell proliferation measured after 48 hrs by MTT assay. Particulars: MCF7, 48 h. Format: functional, cell-based.
The next series has as its system HT-29. As to the kind of experiment: Anticancer activity against human HT-29 cells assessed as inhibition of cell proliferation measured after 48 hrs by MTT assay. Format: functional, cell-based. The following applies: HT-29, 48 h.
Series [2] is described as follows: Antioxidant activity assessed as DPPH radical scavenging activity at 100 uM/ml. It counts as functional.
A further series deals with Erythrocyte. The series is described as follows: Anti-inflammatory activity in human red blood cells assessed as protection of cell membrane at 100 ug/mL relative to control. The following applies: dose 100 µg/ml. It counts as functional.
In the next series the target is Carbonic anhydrase 9 (Homo sapiens, UniProt Q16790). The series is described as follows: Binding affinity to human CA9 assessed as inhibition constant.
A short description of series [3]: AUC (0 to infinity) in CD1 mouse at 10 mg/kg, iv administered as single dose by UPLC analysis. The following applies: in vivo. On the set-up: dose 10 mg/kg, route iv. It counts as ADME, organism-based.
Series [4] is described as follows: AUC in CD1 mouse at 10 mg/kg, iv administered as single dose by UPLC analysis. The following applies: in vivo. Format: ADME, organism-based. On the set-up: dose 10 mg/kg, route iv.
Series [5] in a line: Volume of distribution in CD-1 mouse at 10 mg/kg iv measured by UPLC-MS/MS method. It counts as ADME, organism-based. Particulars: in vivo.
Series [6] can be described thus: Half life in CD1 mouse at 3 mg/kg, iv. Format: ADME, organism-based. Particulars: in vivo.
Series [7] can be described thus: Clearance in CD-1 mouse at 10 mg/kg iv measured by UPLC-MS/MS method. It counts as ADME, organism-based. The following applies: in vivo.
The nature of series [8]: Cmax in CD1 mouse at 0.5 mg/kg, iv. Particulars: in vivo. The arrangement: dose 0.5 mg/kg, route iv. Format: ADME, organism-based.
The target of series [9] is Acetyl-CoA carboxylase 1 (Rattus norvegicus) (UniProt P11497). As to the kind of experiment: In vivo inhibition of ACC1 in Sprague-Dawley rat assessed as reduction in malonyl-CoA in liver. It counts as functional.
Series [10] has the same target. The series is described as follows: In vivo inhibition of ACC1 in Sprague-Dawley rat assessed as reduction in malonyl-CoA in liver at […] relative to control. Format: functional.
A short description of series [11]: In vivo inhibition of ACC2 in Sprague-Dawley rat assessed as reduction in malonyl-CoA in quadriceps at […] relative to control. Format: functional.
Series [12] is described as follows: In vivo inhibition of ACC2 in Sprague-Dawley rat assessed as reduction in malonyl-CoA in quadriceps. It counts as functional.
The subject of a further series is HepG2. As to the kind of experiment: Antiproliferative activity against human HepG2 cells assessed as reduction in cell viability after 24 hrs by MTT assay. It counts as functional, cell-based. Particulars: HepG2, 24 h.
A further series deals with Plasmodium falciparum. The series is described as follows: Antiplasmodial activity against chloroquine-resistant Plasmodium falciparum Dd2 in HepG2 cells. It counts as functional, organism-based.
The nature of series [13]: Aqueous solubility of the compound at pH 5.0. Format: physicochemical. Particulars: buffer.
Series [14] in a line: Lipophilicity, logP of the compound. Format: physicochemical. Particulars: octanol/water.
Series [15] is described as follows: Aqueous solubility of the compound at pH 6.2. It counts as physicochemical. The following applies: buffer.
Series [16] is described as follows: Antioxidant activity assessed as H2O2 radical scavenging activity. It counts as functional.

Regarding `CC(=O)N1CCC2(CC1)CC(=O)c1cc(C(=O)/C=C3\C(=O)Nc4ccc(Br)cc43)c(O)cc1O2`, the half-maximal inhibitory concentration (IC50) in series [1] was found to be 58.6 µM.
As for `COc1cc(C(=O)N2CCC3(CC2)CC(=O)c2ccccc2O3)cc(OC)c1OC`, the IC50 with A2780 came out at 18.8 µM; in the series on MCF7, 47.1 µM; with HT-29 it was 23.2 µM.
For the compound `CC(=O)N1CCC2(CC1)CC(=O)c1c(ccc3c1CCC(C)(C)O3)O2`, the half-inhibitory concentration (IC50) in series [2] (read-out: IC50) was determined as 6.59 µM. Further, the Activity with Erythrocyte is reported as 56.1%.
Regarding `CC(C)(C)OCC(=O)CN1CCC2(CC1)CC(=O)c1cc(C(=O)/C=C3\C(=O)Nc4ccc(Br)cc43)c(O)cc1O2`, the IC50 in series [1] came to 56.3 µM.
In the case of `O=C1CC2(CCN(C(=O)C34CC5CC(CC(C5)C3)C4)CC2)Oc2ccccc21`, the half-inhibitory concentration (IC50) in the series on A2780 turned out to be 22.7 µM; in the series with MCF7, 23.9 µM; in the series on HT-29 it was 8.46 µM.
For `CCOc1ccc2c(c1)OC1(CCN(c3ccc(S(N)(=O)=O)cc3[N+](=O)[O-])CC1)CC2=O`, the Ki at Carbonic anhydrase 9 was found to be 2.65 µM.
Regarding `NS(=O)(=O)c1ccc(N2CCC3(CC2)CC(=O)c2cc(Br)ccc2O3)c([N+](=O)[O-])c1`, at Carbonic anhydrase 9, the Ki is 0.199 µM.
Take `Cc1ccc(S(=O)(=O)N2CCC3(CC2)CC(=O)c2ccccc2O3)cc1`: the half-inhibitory concentration (IC50) in the series on A2780 turned out to be 1.79 µM; in the series with MCF7 it was 6.78 µM; in the series with HT-29, 16 µM.
As to `CN1CCC2(CC1)CC(=O)c1c(ccc3c1CCC(C)(C)O3)O2`, the IC50 in series [2] (read-out: IC50) came out at 6.59 µM. Further, the Activity in the series with Erythrocyte was determined as 64.72%.
With `O=C(/C=C/c1ccc2c(c1)C(=O)CC1(CCN(CCc3ccccc3)CC1)O2)NO`, the AUC in [3] (mouse) was found to be 1042 ng·h/mL; in [4], 1600 ng·h/mL. Further, the distribution volume (Vd) in series [5] was 8.6 L/kg. In series [6], this compound gave a half-life of 9.1 h. Further, the CL in series [7] (mouse, iv, 10 mg/kg) turned out to be 79.8 mL/min/kg. Moreover, the concentration in series [8] peaked (Cmax) at 2490 nM.
Consider `CC(C)(C)OCC(=O)CN1CCC2(CC1)CC(=O)c1cc(C(=O)/C=C3\C(=O)Nc4ccccc43)c(O)cc1O2`, for which, in [1], the IC50 was determined as 6.85 µM.
With `CCOC(=O)N1CCC2(CC1)CC(=O)c1cc(C(=O)/C=C3\C(=O)Nc4ccccc43)c(O)cc1O2`, the concentration for half-maximal inhibition (IC50) in [1] was 1.74 µM.
In the case of `COc1ccc2c(c1)C(=O)CC1(CCN(c3ccc(S(N)(=O)=O)cc3[N+](=O)[O-])CC1)O2`, the Ki on Carbonic anhydrase 9 was 1.56 µM.
With `CC(C)(C)n1cc2c(n1)C(=O)CC1(CCN(C(=O)c3ccc4[nH]ncc4c3)CC1)O2`, the ED50 in series [9] stood at 1.6 mg/kg; in [12], 2.6 mg/kg. In series [10], the inhibition came to 75%. The “inhibition (INH)” value in [11] stood at 78%.
With `CC(C)Oc1ccc2c(c1)OC1(CCN(c3ccc(S(N)(=O)=O)cc3[N+](=O)[O-])CC1)CC2=O`, the Ki on Carbonic anhydrase 9 is 0.0346 µM.
As to `CC(=O)N1CCC2(CC1)CC(=O)c1cc(C(=O)/C=C3\C(=O)Nc4ccccc43)c(O)cc1O2`, the IC50 in [1] was determined as 47.7 µM.
As for `OC(CN1CCC2(CC1)CC(O)c1ccc3ccccc3c1O2)c1ccc(F)c(F)c1` (stereo unspecified), the EC50 turned out to be 19 µM with HepG2 and 0.35 µM with Plasmodium falciparum. In addition, the solubility in [13] and in series [15] was more than 42 µg/mL throughout. In addition, the logP in series [14] stood at 3.85.
As for `NS(=O)(=O)c1ccc(N2CCC3(CC2)CC(=O)c2cc(OCCO)ccc2O3)c([N+](=O)[O-])c1`, the Ki on Carbonic anhydrase 9 came out at 3.75 µM.
Still for that read-out and setting: under `COCCOc1ccc2c(c1)C(=O)CC1(CCN(c3ccc(S(N)(=O)=O)cc3[N+](=O)[O-])CC1)O2` stands 4.34 µM.
With `NS(=O)(=O)c1ccc(N2CCC3(CC2)CC(=O)c2ccc(Br)cc2O3)c([N+](=O)[O-])c1`, the inhibitory constant (Ki) on Carbonic anhydrase 9 came out at 1.47 µM.
For `NS(=O)(=O)c1ccc(N2CCC3(CC2)CC(=O)c2ccccc2O3)c([N+](=O)[O-])c1`, the Ki on Carbonic anhydrase 9 was 0.229 µM.
With `CCOC(=O)N1CCC2(CC1)CC(=O)c1cc(C(=O)/C=C3\C(=O)Nc4ccc(Br)cc43)c(O)cc1O2`, in series [1], the half-inhibitory concentration (IC50) amounted to 48.5 µM.
With `O=C1O[C@H]([C@@H](O)CO)C(O)=C1O` [ASCORBIC ACID], the half-maximal inhibitory concentration (IC50) in [2] (read-out: IC50) and in [1] was 8.64 µM in each case.
As for `CC(=O)Oc1ccc2c(c1)C(=O)CC1(CCN(c3ccc(S(N)(=O)=O)cc3[N+](=O)[O-])CC1)O2`, the Ki at Carbonic anhydrase 9 amounted to 4.08 µM.
On to `Cc1ccc2c(c1)C(=O)CC1(CCN(c3ccc(S(N)(=O)=O)cc3[N+](=O)[O-])CC1)O2`, for which the inhibition constant Ki on Carbonic anhydrase 9 turned out to be 3.55 µM.
For `NS(=O)(=O)c1ccc(N2CCC3(CC2)CC(=O)c2ccc(OCCO)cc2O3)c([N+](=O)[O-])c1`, the Ki at Carbonic anhydrase 9 is 0.0465 µM.
In the case of `CCCOc1ccc2c(c1)OC1(CCN(c3ccc(S(N)(=O)=O)cc3[N+](=O)[O-])CC1)CC2=O`, the inhibition constant Ki at Carbonic anhydrase 9 amounted to 4.15 µM.
`CCOc1ccc2c(c1)C(=O)CC1(CCN(c3ccc(S(N)(=O)=O)cc3[N+](=O)[O-])CC1)O2`: the Ki at Carbonic anhydrase 9 is 2.84 µM.
Same read-out and setting: with `NS(=O)(=O)c1ccc(N2CCC3(CC2)CC(=O)c2ccc(O)cc2O3)c([N+](=O)[O-])c1` the figure was 4.41 µM.
Regarding `CC(=O)N1CCC2(CC1)CC(=O)c1cc3c(cc1O2)CCC(C)(C)O3`, the 50% inhibitory concentration (IC50) in series [2] (read-out: IC50) worked out at 5.32 µM. Further, the Activity with Erythrocyte stood at 23.07%.
Turning to `COCCOc1ccc2c(c1)OC1(CCN(c3ccc(S(N)(=O)=O)cc3[N+](=O)[O-])CC1)CC2=O`, the Ki on Carbonic anhydrase 9 came to 0.0454 µM.
For `O=C1Nc2ccccc2/C1=C/C(=O)c1cc2c(cc1O)OC1(CCN(Cc3ccccc3)CC1)CC2=O`, the IC50 in series [1] was found to be 8.12 µM.
For `Cc1c(C(=O)c2ccc(-c3ccccc3)cc2)oc2cc3c(cc12)C(=O)CC1(CCN(CC(=O)OC(C)(C)C)CC1)O3`, the IC50 came to 63.92 µg/mL in [2] and 44.73 µg/mL (≈ 79.1 µM) in [16].
As to `CCCOc1ccc2c(c1)C(=O)CC1(CCN(c3ccc(S(N)(=O)=O)cc3[N+](=O)[O-])CC1)O2`, the Ki at Carbonic anhydrase 9 stood at 1.24 µM.
Consider `CC(C)Oc1ccc2c(c1)C(=O)CC1(CCN(c3ccc(S(N)(=O)=O)cc3[N+](=O)[O-])CC1)O2`, for which the Ki on Carbonic anhydrase 9 amounted to 3.3 µM.
Consider `COc1ccc2c(c1)OC1(CCN(c3ccc(S(N)(=O)=O)cc3[N+](=O)[O-])CC1)CC2=O`, for which the inhibitory constant (Ki) on Carbonic anhydrase 9 turned out to be 2.75 µM.
Regarding `O=C(/C=C/c1ccc2c(c1)C(=O)CC1(CCN(Cc3ccc(F)cc3)CC1)O2)NO`, the area under the curve AUC(0-inf) in series [3] (CD1, mouse) was 1490 ng·h/mL. Also, in [4], the AUC was 1240 ng·h/mL. Further, the distribution volume (Vd) in series [5] was determined as 5.9 L/kg. In [6], the half-life was 13 h. The compound also gave a clearance in series [7] (CD-1, mouse) of 55.8 mL/min/kg. Besides, in [8], the peak level (Cmax) was 1830 nM.
`O=C1Nc2ccc(Br)cc2/C1=C/C(=O)c1cc2c(cc1O)OC1(CCN(Cc3ccccc3)CC1)CC2=O`: in [1], the half-maximal inhibitory concentration (IC50) was 12.7 µM.
